# Reference: the NIST ThermoML archive (doi:10.1021/je200195q)
# ± gives the expanded uncertainty stated by the source.
# Assay: activity coefficient (dimensionless); of the first substance listed, at infinite dilution; xn = mol fraction of the nth substance listed
# Conditions: 343.15 K; 101 kPa; Liquid; Chromatography; x1 = 0
row,Structure (SMILES),activity coefficient
1,C#CCCCC [1-hexyne] + CCCCCCCCCCn1cc[n+](CCCCCCCCCC)c1C.O=S(=O)([N-]S(=O)(=O)C(F)(F)F)C(F)(F)F,0.899 ± 0.057
2,CCC[N+](=O)[O-] [1-nitropropane] + CCCCCCCCCCn1cc[n+](CCCCCCCCCC)c1C.O=S(=O)([N-]S(=O)(=O)C(F)(F)F)C(F)(F)F,0.479 ± 0.037
3,"OCC(F)(F)F [2,2,2-trifluoroethanol] + CCCCCCCCCCn1cc[n+](CCCCCCCCCC)c1C.O=S(=O)([N-]S(=O)(=O)C(F)(F)F)C(F)(F)F",0.355 ± 0.032
4,CC(C)CO [2-methyl-1-propanol] + CCCCCCCCCCn1cc[n+](CCCCCCCCCC)c1C.O=S(=O)([N-]S(=O)(=O)C(F)(F)F)C(F)(F)F,1.06 ± 0.067
5,CCC(C)CC [3-methylpentane] + CCCCCCCCCCn1cc[n+](CCCCCCCCCC)c1C.O=S(=O)([N-]S(=O)(=O)C(F)(F)F)C(F)(F)F,1.63 ± 0.11
6,CC#N [acetonitrile] + CCCCCCCCCCn1cc[n+](CCCCCCCCCC)c1C.O=S(=O)([N-]S(=O)(=O)C(F)(F)F)C(F)(F)F,0.44 ± 0.035

# Same assay, conditions: 354.65 K; 101 kPa; Liquid; Chromatography; x1 = 0
row,Structure (SMILES),activity coefficient
1,"Cc1ccccc1C [1,2-dimethylbenzene] + CCCCCC[n+]1ccn(C)c1.FC(F)(F)C(F)(F)[P-](F)(F)(F)(C(F)(F)C(F)(F)F)C(F)(F)C(F)(F)F",0.957 ± 0.06
2,"Cc1cccc(C)c1 [1,3-dimethylbenzene] + CCCCCC[n+]1ccn(C)c1.FC(F)(F)C(F)(F)[P-](F)(F)(F)(C(F)(F)C(F)(F)F)C(F)(F)C(F)(F)F",1.01 ± 0.063
3,"Cc1ccc(C)cc1 [1,4-dimethylbenzene] + CCCCCC[n+]1ccn(C)c1.FC(F)(F)C(F)(F)[P-](F)(F)(F)(C(F)(F)C(F)(F)F)C(F)(F)C(F)(F)F",1 ± 0.063
4,"C1COCCO1 [1,4-dioxane] + CCCCCC[n+]1ccn(C)c1.FC(F)(F)C(F)(F)[P-](F)(F)(F)(C(F)(F)C(F)(F)F)C(F)(F)C(F)(F)F",0.339 ± 0.032
5,C#CCCCCC [1-heptyne] + CCCCCC[n+]1ccn(C)c1.FC(F)(F)C(F)(F)[P-](F)(F)(F)(C(F)(F)C(F)(F)F)C(F)(F)C(F)(F)F,2.32 ± 0.16
6,C#CCCCC [1-hexyne] + CCCCCC[n+]1ccn(C)c1.FC(F)(F)C(F)(F)[P-](F)(F)(F)(C(F)(F)C(F)(F)F)C(F)(F)C(F)(F)F,1.75 ± 0.12
7,CCC[N+](=O)[O-] [1-nitropropane] + CCCCCC[n+]1ccn(C)c1.FC(F)(F)C(F)(F)[P-](F)(F)(F)(C(F)(F)C(F)(F)F)C(F)(F)C(F)(F)F,0.436 ± 0.035
8,"OCC(F)(F)F [2,2,2-trifluoroethanol] + CCCCCC[n+]1ccn(C)c1.FC(F)(F)C(F)(F)[P-](F)(F)(F)(C(F)(F)C(F)(F)F)C(F)(F)C(F)(F)F",0.728 ± 0.048
9,"CC(C)CC(C)(C)C [2,2,4-trimethylpentane] + CCCCCC[n+]1ccn(C)c1.FC(F)(F)C(F)(F)[P-](F)(F)(F)(C(F)(F)C(F)(F)F)C(F)(F)C(F)(F)F",6.18 ± 0.42
10,CC(C)CO [2-methyl-1-propanol] + CCCCCC[n+]1ccn(C)c1.FC(F)(F)C(F)(F)[P-](F)(F)(F)(C(F)(F)C(F)(F)F)C(F)(F)C(F)(F)F,1.62 ± 0.11
11,CCC(C)CC [3-methylpentane] + CCCCCC[n+]1ccn(C)c1.FC(F)(F)C(F)(F)[P-](F)(F)(F)(C(F)(F)C(F)(F)F)C(F)(F)C(F)(F)F,4.43 ± 0.3
12,CC#N [acetonitrile] + CCCCCC[n+]1ccn(C)c1.FC(F)(F)C(F)(F)[P-](F)(F)(F)(C(F)(F)C(F)(F)F)C(F)(F)C(F)(F)F,0.292 ± 0.031

# Same assay, conditions: 362.65 K; 101 kPa; Liquid; Chromatography; x1 = 0
row,Structure (SMILES),activity coefficient
1,"Cc1ccccc1C [1,2-dimethylbenzene] + CCCCn1cc[n+](C)c1.O=S(=O)([N-]S(=O)(=O)C(F)(F)C(F)(F)F)C(F)(F)C(F)(F)F",1.97 ± 0.13
2,"Cc1cccc(C)c1 [1,3-dimethylbenzene] + CCCCn1cc[n+](C)c1.O=S(=O)([N-]S(=O)(=O)C(F)(F)C(F)(F)F)C(F)(F)C(F)(F)F",2.09 ± 0.14
3,"Cc1ccc(C)cc1 [1,4-dimethylbenzene] + CCCCn1cc[n+](C)c1.O=S(=O)([N-]S(=O)(=O)C(F)(F)C(F)(F)F)C(F)(F)C(F)(F)F",2 ± 0.14
4,"C1COCCO1 [1,4-dioxane] + CCCCn1cc[n+](C)c1.O=S(=O)([N-]S(=O)(=O)C(F)(F)C(F)(F)F)C(F)(F)C(F)(F)F",0.576 ± 0.041
5,C#CCCCCC [1-heptyne] + CCCCn1cc[n+](C)c1.O=S(=O)([N-]S(=O)(=O)C(F)(F)C(F)(F)F)C(F)(F)C(F)(F)F,3.58 ± 0.24
6,C#CCCCC [1-hexyne] + CCCCn1cc[n+](C)c1.O=S(=O)([N-]S(=O)(=O)C(F)(F)C(F)(F)F)C(F)(F)C(F)(F)F,2.64 ± 0.18
7,CCC[N+](=O)[O-] [1-nitropropane] + CCCCn1cc[n+](C)c1.O=S(=O)([N-]S(=O)(=O)C(F)(F)C(F)(F)F)C(F)(F)C(F)(F)F,0.756 ± 0.05
8,"OCC(F)(F)F [2,2,2-trifluoroethanol] + CCCCn1cc[n+](C)c1.O=S(=O)([N-]S(=O)(=O)C(F)(F)C(F)(F)F)C(F)(F)C(F)(F)F",0.373 ± 0.033
9,"CC(C)CC(C)(C)C [2,2,4-trimethylpentane] + CCCCn1cc[n+](C)c1.O=S(=O)([N-]S(=O)(=O)C(F)(F)C(F)(F)F)C(F)(F)C(F)(F)F",10.5 ± 0.72
10,CC(C)CO [2-methyl-1-propanol] + CCCCn1cc[n+](C)c1.O=S(=O)([N-]S(=O)(=O)C(F)(F)C(F)(F)F)C(F)(F)C(F)(F)F,1.57 ± 0.1
11,CCC(C)CC [3-methylpentane] + CCCCn1cc[n+](C)c1.O=S(=O)([N-]S(=O)(=O)C(F)(F)C(F)(F)F)C(F)(F)C(F)(F)F,7.62 ± 0.52
12,CC#N [acetonitrile] + CCCCn1cc[n+](C)c1.O=S(=O)([N-]S(=O)(=O)C(F)(F)C(F)(F)F)C(F)(F)C(F)(F)F,0.504 ± 0.038
